Several values for one entry are separate records, joined by “and”; a condition that tells them apart may be missing. Identical values can stand only once. Like-named read-outs stand apart in the source and are kept apart here.
Columns and labels:
Giant foxtail (GIFT) = experiment: whole plant or invertebrate; format: in vivo; conditions: for % Inhibition GIFT: in vivo
Shattercane (SHCA) = format: in vivo
Corn [1] = experiment: Greenhouse test Procedure VII: biocide and antidote in furrow, herbicide POE (Examples 39-42, 48-50, 56-58; Tables 38-41, 47-49, 55-57); format: in vivo; conditions: for % Inhibition Corn: C (COUNTER) + antidote in furrow
Description: This procedure describes interaction among herbicide, biocide and antidote when the biocide and the antidote is applied to a soil furrow containing crop seed before emergence of the crop and the herbicide is applied after emergence of the crop and weeds. The soil and planting depth was described in Procedure IV. The containers for comparison, the biocide and antidote applications to soil furrows were described in Procedure VI. In this procedure, the seed beds of the first, second, third and fourth containers are covered by soil layers not treated with herbicide. The containers were then placed on a bench in a greenhouse and subirrigated as required for the duration of the test. The herbicide, dispersed or dissolved in water containing 0.25% v/v nonionic surfactant (X-77) was applied by a track sprayer (187 L/ha) to the emerged plants of the second, third and fourth containers about five days after planting. All treatments were run in duplicate. Plant response was observed according to Procedure IV. Variations in this procedure will be noted in the examples.
In this example, tests were conducted according to Procedure VII for the POE application of the herbicides following in-furrow application of COUNTER® 15G insecticide (BIOCIDE No. 1) and the antidote on the pre-planted test seeds. In this test, the herbicides were Nos. 1 (MON-12000), 10 (ALLY®) and #4 (HARMONY®) and the Antidote Nos. 1, 7, 12 and 33.
These in-furrow treatments comprised a 50-50 mix of blended granules of COUNTER with and without 5G granular antidotes at 7.4 + 7.4 mg/cm or 1.1 + 0.37 mg active ingredient (a.i.)/cm. The in-furrow initiation of the test was followed five (5) days later with POE application of the herbicides; observations were made eight (8) days later.
In another test, conducted simultaneously with that in Example 39, Herbicide Nos. 5 (chlorimuron ethyl, active ingredient in CLASSIC® herbicide), 7 (nicosulfuron, active ingredient in ACCENT® herbicide) and 15 (tribenuron methyl, active ingredient in EXPRESS® herbicide) were substituted as test herbicides.
In this example, using the same procedure as above, the following imidazolinone herbicides were used with the same insecticide/biocide and antidotes as above: Herb. No. 16 (imazaquin, a.i. in SCEPTER® herbicide; No. 19 (Code No. AC 222293, a.i. in ASSERT® herbicide); No. 6 (imazethapyr, a.i. in PURSUIT® herbicide and No. 18 (imazapyr, a.i. in ARSENAL® herbicide). Test results are shown in Table 40. Table 40
This example describes the testing of the above antidotes used in Examples 39-41 to safen negative synergy interactions between representative species of the class of herbicidal compounds identified as azolopyrimidine sulfonamides and COUNTER 15G. The same procedure used in the above examples was conducted in this test. In this test, the herbicides were formulated in 17% acetone and 83% water with 0.25% v/v X-77 surfactant.
In these tests (according to Procedure VII) the safeners in solution with acetone were applied in furrow to the soil, followed by COUNTER 15G granules at 227 g/305 m (8 oz./1000'). Applications were made in alternate rows in two separate 13.7 cm x 27.7 cm pans containing Dupo silt loam. Pans were seeded 1.3 cm deep, placed on benches in a greenhouse and subirrigated. BEACON was formulated in water with 0.25% v/v X-77 surfactant and applied by track sprayer at a rate of 187 L/Ha (20 gal/A). Weed species in this test were giant foxtail, shattercane and velvetleaf. The herbicide was applied five (5) days after PPI initiation and observation of test result (shown in Table 47) made eight (8) days later.
In Table 47 COUNTER 15G is abbreviated as "C" and the antidotes as "A" in the column headings which indicate the "C + A" ratios used in the tests. Control and COUNTER treatments are average of four (4) replications and COUNTER + Antidote treatments, average of 2 reps. […]

Corn [2] = conditions: for antidote activity: COUNTER with BEACON, PURSUIT (POE) or XRD-498 (PPI), Tables 29-37
Velvetleaf (VELE) = format: in vivo, Abutilon theophrasti
Corn [3] = system: Corn
Corn [4] = experiment: Greenhouse test, combination of Procedures II and III: insecticide in-furrow or in cover layer, herbicide and antidote incorporated in cover layer (Examples 1-3, 6; Tables 1-3, 6); format: in vivo; conditions: 3 weeks
[5] = C:A Ratio 20, ACCENT 0.56 Kg/Ha POE
[6] = C:A Ratio 20, BEACON 0.28 Kg/Ha POE
[7] = C:A Ratio 40, ACCENT 0.56 Kg/Ha POE
[8] = C:A Ratio 40, BEACON 0.28 Kg/Ha POE
[9] = C:A Ratio 80, ACCENT 0.56 Kg/Ha POE
[10] = C:A Ratio 80, BEACON 0.28 Kg/Ha POE
[11] = C:A Ratio 160, ACCENT 0.56 Kg/Ha POE
[12] = C:A Ratio 160, BEACON 0.28 Kg/Ha POE
[13] = Antidote 4.48 + Biocide No. 1 8.96 Kg/Ha PPI, Herb. No. 8 0.07, 5 DAP, before herbicide application
[14] = Antidote 4.48 + Biocide No. 1 8.96 Kg/Ha PPI, Herb. No. 8 0.07 POE, 13 DAP
[15] = Antidote 4.48 + Biocide No. 1 8.96 Kg/Ha PPI, Herbicide No. 7 0.28 POE, 13 days after planting
[16] = Herb. […], 5 DAP, before herbicide application
[17] = Table 14: Herbicide No. 7 (ACCENT) 0.84 Kg/Ha POE + Biocide No. 2 8.96 Kg/Ha PPI + antidote 4.48 Kg/Ha PPI, 13 days after planting, 8 days after herbicide
[18] = […], 13 days after planting, 8 days after herbicide
[19] = […], observed 10 days after herbicide application

CCOP(=S)(OCC)SCSCC [Biocide No. 10, O,O-Diethyl S-[(ethylthio)methyl]phosphorodithioate, reference compound]
% Inhibition GIFT (Giant foxtail (GIFT)): 30% and 20% | % Inhibition SHCA (Shattercane (SHCA); in vivo): 25%

O=C(O)COC(c1ccccc1)c1ccccc1 [compound 79]
% Inhibition Corn (Corn [1]; [5]): 15% | % Inhibition Corn (Corn [1]; [6]): 0% | % Inhibition Corn (Corn [1]; [7]): 20% | % Inhibition Corn (Corn [1]; [8]): 5% | % Inhibition Corn (Corn [1]; [9]): 30% | % Inhibition Corn (Corn [1]; [10]): 15% | % Inhibition Corn (Corn [1]; [11]): 45% | % Inhibition Corn (Corn [1]; [12]): 20%

C=CCC(C)(C#N)Sc1ccc(C)cc1 (centres unmarked) [compound 32]
% Inhibition 5 DAP Corn (Corn [2]; [13]): 0% | % Inhibition 13 DAP Corn (Corn [2]; [14]): 75% | % Inhibition Corn (Corn [2]; [15]): 55% | % Inhibition 5 DAP Corn (Corn [2]; [16]): 0% | % Inhibition Corn (Corn [2]; [17]): 35% | % Inhibition Corn (Corn [2]; [18]): 25% | % Inhibition Corn (Corn [2]; [19]): 70% | % Inhibition 5 DAP Corn (Corn [2]; in vivo): 20% | % Inhibition 13 DAP Corn (Corn [2]; in vivo): 70% | % Inhibition Corn (Corn [2]; in vivo): 65% and 55% and 45% | activity in reducing corn injury (Corn [2]; primisulfuron POE + biocides PPI, Tables 8-10): either inactive or weakly active | % Inhibition 5 DAP VELE (Velvetleaf (VELE); [13]): 0% | % Inhibition 13 DAP VELE (Velvetleaf (VELE); [14]): 90% | % Inhibition VELE (Velvetleaf (VELE); [15]): 65% | % Inhibition 5 DAP VELE (Velvetleaf (VELE); [16]): 0% | % Inhibition VELE (Velvetleaf (VELE); [17]): 60% | % Inhibition VELE (Velvetleaf (VELE); [18]): 70% | % Inhibition VELE (Velvetleaf (VELE); [19]): 80% | % Inhibition 5 DAP VELE (Velvetleaf (VELE); in vivo): 0% | % Inhibition 13 DAP VELE (Velvetleaf (VELE); in vivo): 85% | % Inhibition 5 DAP SHCA (Shattercane (SHCA); [13]): 30% | % Inhibition 13 DAP SHCA (Shattercane (SHCA); [14]): 85% | % Inhibition SHCA (Shattercane (SHCA); [15]): 70% | % Inhibition SHCA (Shattercane (SHCA); [17]): 70% | % Inhibition SHCA (Shattercane (SHCA); [18]): 95% | % Inhibition SHCA (Shattercane (SHCA); [19]): 50% | % Inhibition 5 DAP SHCA (Shattercane (SHCA); in vivo): 30% | % Inhibition 13 DAP SHCA (Shattercane (SHCA); in vivo): 80%

O=C(O)COC(c1ccccc1)c1ccccc1 [compound 78]
% Inhibition Corn (Corn [1]; [5]): 25% | % Inhibition Corn (Corn [1]; [6]): 5% | % Inhibition Corn (Corn [1]; [7]): 20% | % Inhibition Corn (Corn [1]; [8]): 5% | % Inhibition Corn (Corn [1]; [9]): 40% | % Inhibition Corn (Corn [1]; [10]): 20% | % Inhibition Corn (Corn [1]; [11]): 60% | % Inhibition Corn (Corn [1]; [12]): 20%

N#CCON=C(C#N)c1ccccc1 [Antidote No. 9, Benzeneacetonitrile, alpha-<(cyano-methoxy)imino>-]
antidote activity (Corn [2]): active safeners

C=CCSC(=S)N(C)c1ccccc1 [compound 29]
% Inhibition GIFT (Giant foxtail (GIFT)): 55% and 75% and 65% and 95% | % Inhibition 5 DAP Corn (Corn [2]; [13]): 0% | % Inhibition 13 DAP Corn (Corn [2]; [14]): 65% | % Inhibition Corn (Corn [2]; [15]): 60% | % Inhibition 5 DAP Corn (Corn [2]; [16]): 0% | % Inhibition Corn (Corn [2]; [17]): 35% | % Inhibition Corn (Corn [2]; [18]): 35% | % Inhibition Corn (Corn [2]; [19]): 75% | % Inhibition 5 DAP Corn (Corn [2]; in vivo): 35% | % Inhibition 13 DAP Corn (Corn [2]; in vivo): 65% | % Inhibition 5 DAP VELE (Velvetleaf (VELE); [13]): 0% | % Inhibition 13 DAP VELE (Velvetleaf (VELE); [14]): 95% | % Inhibition VELE (Velvetleaf (VELE); [15]): 70% | % Inhibition 5 DAP VELE (Velvetleaf (VELE); [16]): 0% | % Inhibition VELE (Velvetleaf (VELE); [17]): 70% | % Inhibition VELE (Velvetleaf (VELE); [18]): 65% | % Inhibition VELE (Velvetleaf (VELE); [19]): 75% | % Inhibition 5 DAP VELE (Velvetleaf (VELE); in vivo): 20% | % Inhibition 13 DAP VELE (Velvetleaf (VELE); in vivo): 95% | % Inhibition 5 DAP SHCA (Shattercane (SHCA); [13]): 40% | % Inhibition 13 DAP SHCA (Shattercane (SHCA); [14]): 80% | % Inhibition SHCA (Shattercane (SHCA); [15]): 70% | % Inhibition 5 DAP SHCA (Shattercane (SHCA); [16]): 10% | % Inhibition SHCA (Shattercane (SHCA); [17]): 80% | % Inhibition SHCA (Shattercane (SHCA); [18]): 85% | % Inhibition SHCA (Shattercane (SHCA); [19]): 60% | % Inhibition 5 DAP SHCA (Shattercane (SHCA); in vivo): 40% | % Inhibition 13 DAP SHCA (Shattercane (SHCA); in vivo): 85% | % Inhibition SHCA (Shattercane (SHCA); in vivo): 80% and 75% and 65% and 45%

O=C(C(Cl)Cl)N1CCOC12CCCCC2 [Antidote No. 16, 1-Oxa-4-azaspiro<4.5>decane, 4-(dichloroacetyl)-]
corn injury (Corn [1]; COUNTER 15G + BEACON/co-herbicide combinations, Example 56): reduced corn injury | safening, comparison (Corn [1]; COUNTER 15G/BEACON, Example 48): not as active as the other safeners | protecting corn, comparison (Corn [1]; COUNTER/BEACON (and ACCENT), Examples 49, 50): weak in safening effect

CCSC(=O)COC(c1ccccc1)c1ccccc1 [Antidote No. 51, Ethanethioic acid, 2-(diphenyl-methoxy)-, S-ethyl ester]
antidote activity (Corn [2]): most active

O=C(O)c1sc(Cl)nc1C(F)(F)F [Antidote No. 65, 5-Thiazolecarboxylic acid, 2-chloro-4-(trifluoromethyl)-]
antidote activity (Corn [2]): slightly more active than other thiazoles tested

O=C(OCc1ccccc1)c1sc(Cl)nc1C(F)(F)F [compound 7]
% Inhibition VELE (Velvetleaf (VELE); [18]): 65% | % Inhibition VELE (Velvetleaf (VELE); […], observed 7 days after POE (Table 35)): 75%

O=C1OC(=O)c2cccc3cccc1c23 [Antidote No. 5, 1H,3H-Naphtho<1,8-cd>pyran-1,3-dione]
giant foxtail control (Giant foxtail (GIFT); XRD-498 + OP insecticides, Examples 24-27): reduction in giant foxtail control

CC1COc2ccccc2N1C(=O)C(Cl)Cl (centres unmarked) [Antidote No. 28, 4-(Dichloroacetyl)-3,4-dihydro-3-methyl-2H-1,4-benzoxazine]
safening, comparison (Corn [2]; Example 29, COUNTER with BEACON and ACCENT): comparable to MON-13900 (No. 1), but less effective than MON-7400 | safening (Corn [3]; DIAZINON + Herbicides 1, 21, 18, Example 53): Effective safening | safening (Corn [3]; malathion + Herbicides 1, 21, 18, Example 54): moderate to high degrees of safening

Cc1c(F)c(F)c(COC(=O)[C@@H]2[C@H](/C=C(\Cl)C(F)(F)F)C2(C)C)c(F)c1F (racemic) [Biocide No. 3, 2,3,5,6-tetrafluoro-4-methylbenzyl-(Z(-(1 RS, 3RS)-3-(2-Chloro-3,3,3-trifluoroprop-1-ethyl)-2,2-dimethyl-cyclopropane carboxylate, reference compound]
% Injury Corn (Corn [4]; Ex. 3: Insecticide 3 (227g) alone): 3%

CNC(=O)Oc1cccc2c1OC(C)(C)C2 [Biocide No. 4, 2,3-Dihydro-2,2-dimethyl-7-benzofuranyl methylcarbamate, reference compound]
% Injury Corn (Corn [4]; Ex. 3: Insecticide 4 (227 g) alone): 5%

From EP0565593B1, “REDUCING PESTICIDAL INTERACTIONS IN CROPS” (priority 1990, dated 1992)
